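These data come from cells grown in 96-well plates and exposed to compound for 48 hours at five concentrations. TGI denotes the concentration required for complete inhibition of growth.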
Key:
Assay in all cases: NCI-60 cell line screen, 48 h
RXF 393 renal = system: RXF 393 renal
MCF7 breast = system: MCF7 breast
OVCAR-8 ovarian = system: OVCAR-8 ovarian
COLO 205 colon = system: COLO 205 colon
MDA-N = system: MDA-N
SNB-19 CNS = system: SNB-19 CNS
SK-MEL-28 melanoma = system: SK-MEL-28 melanoma
LOX IMVI melanoma = system: LOX IMVI melanoma
UACC-62 melanoma = system: UACC-62 melanoma
786-0 renal = system: 786-0 renal
ACHN renal = system: ACHN renal
IGROV1 ovarian = system: IGROV1 ovarian
HCT-116 colon = system: HCT-116 colon
SK-MEL-2 melanoma = system: SK-MEL-2 melanoma
HL-60(TB) leukemia = system: HL-60(TB) leukemia
SR leukemia = system: SR leukemia
KM12 colon = system: KM12 colon
CAKI-1 renal = system: CAKI-1 renal
OVCAR-4 ovarian = system: OVCAR-4 ovarian
A549 NSCLC = system: A549 NSCLC
OVCAR-3 ovarian = system: OVCAR-3 ovarian
MDA-MB-435 = system: MDA-MB-435
SF-295 CNS = system: SF-295 CNS
MOLT-4 leukemia = system: MOLT-4 leukemia
TK-10 renal = system: TK-10 renal
NCI-H460 lung = system: NCI-H460 lung
K-562 leukemia = system: K-562 leukemia
SN12C renal = system: SN12C renal
PC-3 prostate = system: PC-3 prostate
SW-620 colon = system: SW-620 colon
HCT-15 colon = system: HCT-15 colon
T-47D breast = system: T-47D breast
OVCAR-5 ovarian = system: OVCAR-5 ovarian
UACC-257 melanoma = system: UACC-257 melanoma
SK-OV-3 ovarian = system: SK-OV-3 ovarian
HCC-2998 colon = system: HCC-2998 colon
SK-MEL-5 melanoma = system: SK-MEL-5 melanoma
RPMI-8226 leukemia = system: RPMI-8226 leukemia
M14 melanoma = system: M14 melanoma
A498 renal = system: A498 renal
U251 CNS = system: U251 CNS
EKVX NSCLC = system: EKVX NSCLC
HOP-92 NSCLC = system: HOP-92 NSCLC
BT-549 breast = system: BT-549 breast
CCRF-CEM leukemia = system: CCRF-CEM leukemia
UO-31 renal = system: UO-31 renal
NCI-H23 lung = system: NCI-H23 lung
HOP-62 NSCLC = system: HOP-62 NSCLC
SNB-75 CNS = system: SNB-75 CNS
DU-145 prostate = system: DU-145 prostate
NCI/ADR-RES ovarian = system: NCI/ADR-RES ovarian
NCI-H226 lung = system: NCI-H226 lung
HT29 colon = system: HT29 colon
SF-268 CNS = system: SF-268 CNS
SF-539 CNS = system: SF-539 CNS
NCI-H522 lung = system: NCI-H522 lung
MALME-3M melanoma = system: MALME-3M melanoma
MDA-MB-231 breast = system: MDA-MB-231 breast

CCOC(=O)C1=c2[nH]c3cccc4cccc(c43)n2C(=O)CC1
TGI (RXF 393 renal): > 100 µM
TGI (MCF7 breast): > 100 µM
TGI (OVCAR-8 ovarian): > 100 µM
TGI (COLO 205 colon): > 100 µM
TGI (MDA-N): > 100 µM
TGI (SNB-19 CNS): > 100 µM
TGI (SK-MEL-28 melanoma): > 100 µM
TGI (LOX IMVI melanoma): 62.2 µM
TGI (UACC-62 melanoma): > 100 µM
TGI (786-0 renal): > 100 µM
TGI (ACHN renal): > 100 µM
TGI (IGROV1 ovarian): > 100 µM
TGI (HCT-116 colon): > 100 µM
TGI (SK-MEL-2 melanoma): > 100 µM
TGI (HL-60(TB) leukemia): 64 µM
TGI (SR leukemia): > 100 µM
TGI (KM12 colon): 89.3 µM
TGI (CAKI-1 renal): > 100 µM
TGI (OVCAR-4 ovarian): > 100 µM
TGI (A549 NSCLC): > 100 µM
TGI (OVCAR-3 ovarian): > 100 µM
TGI (MDA-MB-435): > 100 µM
TGI (SF-295 CNS): > 100 µM
TGI (MOLT-4 leukemia): > 100 µM
TGI (TK-10 renal): > 100 µM
TGI (NCI-H460 lung): > 100 µM
TGI (K-562 leukemia): > 100 µM
TGI (SN12C renal): > 100 µM
TGI (PC-3 prostate): > 100 µM
TGI (SW-620 colon): 71.3 µM
TGI (HCT-15 colon): > 100 µM
TGI (T-47D breast): 69.8 µM
TGI (OVCAR-5 ovarian): > 100 µM
TGI (UACC-257 melanoma): > 100 µM
TGI (SK-OV-3 ovarian): > 100 µM
TGI (HCC-2998 colon): > 100 µM
TGI (SK-MEL-5 melanoma): > 100 µM
TGI (RPMI-8226 leukemia): > 100 µM
TGI (M14 melanoma): > 100 µM
TGI (A498 renal): > 100 µM
TGI (U251 CNS): > 100 µM
TGI (EKVX NSCLC): > 100 µM
TGI (HOP-92 NSCLC): > 100 µM
TGI (BT-549 breast): > 100 µM
TGI (CCRF-CEM leukemia): > 100 µM
TGI (UO-31 renal): > 100 µM
TGI (NCI-H23 lung): > 100 µM
TGI (HOP-62 NSCLC): > 100 µM
TGI (SNB-75 CNS): > 100 µM
TGI (DU-145 prostate): > 100 µM
TGI (NCI/ADR-RES ovarian): > 100 µM

O=c1[nH]c(=O)n(COCCOCc2ccccc2)cc1Nc1ccccc1
TGI (RXF 393 renal): > 100 µM
TGI (MCF7 breast): > 100 µM
TGI (OVCAR-8 ovarian): > 100 µM
TGI (NCI-H226 lung): > 100 µM
TGI (COLO 205 colon): > 100 µM
TGI (MDA-N): > 100 µM
TGI (SNB-19 CNS): > 100 µM
TGI (SK-MEL-28 melanoma): > 100 µM
TGI (LOX IMVI melanoma): > 100 µM
TGI (HT29 colon): > 100 µM
TGI (UACC-62 melanoma): > 100 µM
TGI (786-0 renal): > 100 µM
TGI (SF-268 CNS): > 100 µM
TGI (SF-539 CNS): > 100 µM
TGI (ACHN renal): > 100 µM
TGI (IGROV1 ovarian): > 100 µM
TGI (HCT-116 colon): > 100 µM
TGI (SK-MEL-2 melanoma): > 100 µM
TGI (HL-60(TB) leukemia): > 100 µM
TGI (SR leukemia): > 100 µM
TGI (KM12 colon): > 100 µM
TGI (CAKI-1 renal): > 100 µM
TGI (OVCAR-4 ovarian): > 100 µM
TGI (A549 NSCLC): > 100 µM
TGI (OVCAR-3 ovarian): > 100 µM
TGI (MDA-MB-435): > 100 µM
TGI (SF-295 CNS): > 100 µM
TGI (MOLT-4 leukemia): > 100 µM
TGI (TK-10 renal): > 100 µM
TGI (NCI-H460 lung): > 100 µM
TGI (K-562 leukemia): > 100 µM
TGI (SN12C renal): > 100 µM
TGI (PC-3 prostate): > 100 µM
TGI (SW-620 colon): > 100 µM
TGI (HCT-15 colon): > 100 µM
TGI (T-47D breast): > 100 µM
TGI (OVCAR-5 ovarian): > 100 µM
TGI (UACC-257 melanoma): > 100 µM
TGI (SK-OV-3 ovarian): > 100 µM
TGI (NCI-H522 lung): > 100 µM
TGI (HCC-2998 colon): > 100 µM
TGI (M14 melanoma): > 100 µM
TGI (A498 renal): > 100 µM
TGI (U251 CNS): > 100 µM
TGI (EKVX NSCLC): > 100 µM
TGI (HOP-92 NSCLC): > 100 µM
TGI (CCRF-CEM leukemia): > 100 µM
TGI (UO-31 renal): > 100 µM
TGI (NCI-H23 lung): > 100 µM
TGI (MALME-3M melanoma): > 100 µM
TGI (HOP-62 NSCLC): > 100 µM
TGI (SNB-75 CNS): > 100 µM
TGI (DU-145 prostate): > 100 µM
TGI (NCI/ADR-RES ovarian): > 100 µM
TGI (MDA-MB-231 breast): > 100 µM

From PubChem BioAssay (NCI)
